In patent US11077090B2, “Compounds and compositions and uses thereof” (Sunovion Pharmaceuticals Inc., priority 2016, dated 2021):

Test system: compound-treated mice
Assay: Neuropharmacological assay (SmartCube): behavioral activity signature and minimal effective dose
Assay type: in vivo
Conditions: for minimal effective dose: Mus musculus, ip, MED = dose having 50% or more total activity, read-out: Potency: minimal effective dose (MED); for AD: ADHD (probability of activity signature) / AG: analgesic (probability of activity signature) / AX: anxiolytic (probability of activity signature) / CE: cognitive enhancer (probability of activity signature) / DP: anti-depressant (probability of activity signature) / MS: mood stabilizer (probability of activity signature) / PS: anti-psychotic (probability of activity signature) / SD: sedative hypnotic (probability of activity signature) / UN: uncharacterized CNS activity (probability of activity signature): i.p. 15 min before test, most efficacious dose(s)
Procedure, shortened: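 Mice dosed i.p. 15 min before test, compound in N-methyl-2-pyrrolidone/PEG/propylene glycol, 3 doses; video-captured behavior matched to reference-drug signatures, giving per-class probabilities at most efficacious dose. MED from doses typically 0.3–30 mpk, defined as lowest dose with ≥50% total activity.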

Cl.NC1COCc2c(Cl)cccc21 (stereo not drawn) [Example 5]
minimal effective dose: < 3 mg/kg | AD: ADHD (probability of activity signature): + (LOQ ≤ + <5%) | AG: analgesic (probability of activity signature): ++ (5% ≤ ++ <25%) | AX: anxiolytic (probability of activity signature): ++ (5% ≤ ++ <25%) | CE: cognitive enhancer (probability of activity signature): ++ (5% ≤ ++ <25%) | DP: anti-depressant (probability of activity signature): ++ (5% ≤ ++ <25%) | MS: mood stabilizer (probability of activity signature): + (LOQ ≤ + <5%) | PS: anti-psychotic (probability of activity signature): ++ (5% ≤ ++ <25%) | SD: sedative hypnotic (probability of activity signature): ++ (5% ≤ ++ <25%) | UN: uncharacterized CNS activity (probability of activity signature): +++ (25% ≤ +++ <50%)

NC1COCc2ccc(F)cc21 (stereo not drawn) [Example 6]
minimal effective dose: 3 to 10 mg/kg | AD: ADHD (probability of activity signature): + (LOQ ≤ + <5%) | AG: analgesic (probability of activity signature): ++ (5% ≤ ++ <25%) | AX: anxiolytic (probability of activity signature): ++ (5% ≤ ++ <25%) | CE: cognitive enhancer (probability of activity signature): + (LOQ ≤ + <5%) | DP: anti-depressant (probability of activity signature): ++ (5% ≤ ++ <25%) | MS: mood stabilizer (probability of activity signature): + (LOQ ≤ + <5%) | PS: anti-psychotic (probability of activity signature): + (LOQ ≤ + <5%) | SD: sedative hypnotic (probability of activity signature): ++ (5% ≤ ++ <25%) | UN: uncharacterized CNS activity (probability of activity signature): ++++ (50% ≤ ++++)

Cl.NC1COCc2ccc(-c3ccccc3)cc21 (stereo not drawn) [Example 7, 6-Phenylisochroman-4-amine hydrochloride]
minimal effective dose: 10 to 30 mg/kg | AD: ADHD (probability of activity signature): + (LOQ ≤ + <5%) | AG: analgesic (probability of activity signature): + (LOQ ≤ + <5%) | AX: anxiolytic (probability of activity signature): ++ (5% ≤ ++ <25%) | CE: cognitive enhancer (probability of activity signature): ++ (5% ≤ ++ <25%) | DP: anti-depressant (probability of activity signature): ++ (5% ≤ ++ <25%) | MS: mood stabilizer (probability of activity signature): ++ (5% ≤ ++ <25%) | PS: anti-psychotic (probability of activity signature): ++ (5% ≤ ++ <25%) | SD: sedative hypnotic (probability of activity signature): + (LOQ ≤ + <5%) | UN: uncharacterized CNS activity (probability of activity signature): +++ (25% ≤ +++ <50%)

CC(C)c1ccc2c(c1)C(N)COC2.Cl (stereo not drawn) [Example 8, 6-Isopropylisochroman-4-amine hydrochloride]
minimal effective dose: 10 to 30 mg/kg | AD: ADHD (probability of activity signature): + (LOQ ≤ + <5%) | AG: analgesic (probability of activity signature): ++ (5% ≤ ++ <25%) | AX: anxiolytic (probability of activity signature): ++ (5% ≤ ++ <25%) | CE: cognitive enhancer (probability of activity signature): ++ (5% ≤ ++ <25%) | DP: anti-depressant (probability of activity signature): ++ (5% ≤ ++ <25%) | MS: mood stabilizer (probability of activity signature): + (LOQ ≤ + <5%) | PS: anti-psychotic (probability of activity signature): ++ (5% ≤ ++ <25%) | SD: sedative hypnotic (probability of activity signature): +++ (25% ≤ +++ <50%) | UN: uncharacterized CNS activity (probability of activity signature): ++ (5% ≤ ++ <25%)

Cl.NC1COCc2ccc(C(F)(F)F)cc21 (stereo not drawn) [Example 9, 6-Trifluoromethylisochroman-4-amine hydrochloride]
minimal effective dose: 3 to 10 mg/kg | AD: ADHD (probability of activity signature): + (LOQ ≤ + <5%) | AG: analgesic (probability of activity signature): ++ (5% ≤ ++ <25%) | AX: anxiolytic (probability of activity signature): ++ (5% ≤ ++ <25%) | CE: cognitive enhancer (probability of activity signature): ++ (5% ≤ ++ <25%) | DP: anti-depressant (probability of activity signature): ++ (5% ≤ ++ <25%) | MS: mood stabilizer (probability of activity signature): + (LOQ ≤ + <5%) | PS: anti-psychotic (probability of activity signature): ++ (5% ≤ ++ <25%) | SD: sedative hypnotic (probability of activity signature): + (LOQ ≤ + <5%) | UN: uncharacterized CNS activity (probability of activity signature): +++ (25% ≤ +++ <50%)

COc1ccc2c(c1)C(N)COC2.Cl (stereo not drawn) [Example 10, 6-Methoxyisochroman-4-amine hydrochloride]
minimal effective dose: 3 to 10 mg/kg | AD: ADHD (probability of activity signature): + (LOQ ≤ + <5%) | AG: analgesic (probability of activity signature): ++ (5% ≤ ++ <25%) | AX: anxiolytic (probability of activity signature): ++ (5% ≤ ++ <25%) | CE: cognitive enhancer (probability of activity signature): +++ (25% ≤ +++ <50%) | DP: anti-depressant (probability of activity signature): ++ (5% ≤ ++ <25%) | MS: mood stabilizer (probability of activity signature): + (LOQ ≤ + <5%) | PS: anti-psychotic (probability of activity signature): +++ (25% ≤ +++ <50%) | SD: sedative hypnotic (probability of activity signature): ++ (5% ≤ ++ <25%) | UN: uncharacterized CNS activity (probability of activity signature): ++ (5% ≤ ++ <25%)

CC(C)(C)c1ccc2c(c1)C(N)COC2.Cl (stereo not drawn) [Example 11]
minimal effective dose: 10 to 30 mg/kg | AD: ADHD (probability of activity signature): + (LOQ ≤ + <5%) | AG: analgesic (probability of activity signature): + (LOQ ≤ + <5%) | AX: anxiolytic (probability of activity signature): + (LOQ ≤ + <5%) | CE: cognitive enhancer (probability of activity signature): ++ (5% ≤ ++ <25%) | DP: anti-depressant (probability of activity signature): ++ (5% ≤ ++ <25%) | MS: mood stabilizer (probability of activity signature): + (LOQ ≤ + <5%) | PS: anti-psychotic (probability of activity signature): + (LOQ ≤ + <5%) | SD: sedative hypnotic (probability of activity signature): ++ (5% ≤ ++ <25%) | UN: uncharacterized CNS activity (probability of activity signature): + (LOQ ≤ + <5%)

Cl.NC1COCc2ccccc21 (stereo not drawn) [Example 12]
minimal effective dose: 10 to 30 mg/kg | AD: ADHD (probability of activity signature): + (LOQ ≤ + <5%) | AG: analgesic (probability of activity signature): ++ (5% ≤ ++ <25%) | AX: anxiolytic (probability of activity signature): ++ (5% ≤ ++ <25%) | CE: cognitive enhancer (probability of activity signature): ++ (5% ≤ ++ <25%) | DP: anti-depressant (probability of activity signature): ++ (5% ≤ ++ <25%) | MS: mood stabilizer (probability of activity signature): + (LOQ ≤ + <5%) | PS: anti-psychotic (probability of activity signature): ++ (5% ≤ ++ <25%) | SD: sedative hypnotic (probability of activity signature): + (LOQ ≤ + <5%) | UN: uncharacterized CNS activity (probability of activity signature): +++ (25% ≤ +++ <50%)

Cl.NC1COCc2ccc3ccccc3c21 (stereo not drawn) [Example 13]
minimal effective dose: 3 to 10 mg/kg | AD: ADHD (probability of activity signature): + (LOQ ≤ + <5%) | AG: analgesic (probability of activity signature): ++ (5% ≤ ++ <25%) | AX: anxiolytic (probability of activity signature): ++ (5% ≤ ++ <25%) | CE: cognitive enhancer (probability of activity signature): ++ (5% ≤ ++ <25%) | DP: anti-depressant (probability of activity signature): ++ (5% ≤ ++ <25%) | MS: mood stabilizer (probability of activity signature): + (LOQ ≤ + <5%) | PS: anti-psychotic (probability of activity signature): ++ (5% ≤ ++ <25%) | SD: sedative hypnotic (probability of activity signature): + (LOQ ≤ + <5%) | UN: uncharacterized CNS activity (probability of activity signature): ++++ (50% ≤ ++++)

COc1ccc2c(c1)COCC2N.Cl (stereo not drawn) [Example 14]
minimal effective dose: 10 to 30 mg/kg | AD: ADHD (probability of activity signature): + (LOQ ≤ + <5%) | AG: analgesic (probability of activity signature): ++ (5% ≤ ++ <25%) | AX: anxiolytic (probability of activity signature): ++ (5% ≤ ++ <25%) | CE: cognitive enhancer (probability of activity signature): + (LOQ ≤ + <5%) | DP: anti-depressant (probability of activity signature): ++ (5% ≤ ++ <25%) | MS: mood stabilizer (probability of activity signature): + (LOQ ≤ + <5%) | PS: anti-psychotic (probability of activity signature): + (LOQ ≤ + <5%) | SD: sedative hypnotic (probability of activity signature): + (LOQ ≤ + <5%) | UN: uncharacterized CNS activity (probability of activity signature): ++++ (50% ≤ ++++)

Cl.NC1COCc2ccc3ncccc3c21 (stereo not drawn) [Example 15]
minimal effective dose: > 30 mg/kg | AD: ADHD (probability of activity signature): + (LOQ ≤ + <5%) | AG: analgesic (probability of activity signature): + (LOQ ≤ + <5%) | AX: anxiolytic (probability of activity signature): + (LOQ ≤ + <5%) | CE: cognitive enhancer (probability of activity signature): + (LOQ ≤ + <5%) | DP: anti-depressant (probability of activity signature): + (LOQ ≤ + <5%) | MS: mood stabilizer (probability of activity signature): + (LOQ ≤ + <5%) | PS: anti-psychotic (probability of activity signature): + (LOQ ≤ + <5%) | SD: sedative hypnotic (probability of activity signature): + (LOQ ≤ + <5%) | UN: uncharacterized CNS activity (probability of activity signature): + (LOQ ≤ + <5%)

Cc1nc2c3c(ccc2s1)COCC3N.Cl (stereo not drawn) [Example 16]
minimal effective dose: 10 to 30 mg/kg | AD: ADHD (probability of activity signature): + (LOQ ≤ + <5%) | AG: analgesic (probability of activity signature): ++ (5% ≤ ++ <25%) | AX: anxiolytic (probability of activity signature): +++ (25% ≤ +++ <50%) | CE: cognitive enhancer (probability of activity signature): ++ (5% ≤ ++ <25%) | DP: anti-depressant (probability of activity signature): + (LOQ ≤ + <5%) | MS: mood stabilizer (probability of activity signature): + (LOQ ≤ + <5%) | PS: anti-psychotic (probability of activity signature): ++ (5% ≤ ++ <25%) | SD: sedative hypnotic (probability of activity signature): + (LOQ ≤ + <5%) | UN: uncharacterized CNS activity (probability of activity signature): +++ (25% ≤ +++ <50%)

CCc1cccc2c1COCC2N.Cl (stereo not drawn) [Example 17, 8-Ethylisochroman-4-amine hydrochloride]
minimal effective dose: 10 to 30 mg/kg | AD: ADHD (probability of activity signature): + (LOQ ≤ + <5%) | AG: analgesic (probability of activity signature): ++ (5% ≤ ++ <25%) | AX: anxiolytic (probability of activity signature): +++ (25% ≤ +++ <50%) | CE: cognitive enhancer (probability of activity signature): ++ (5% ≤ ++ <25%) | DP: anti-depressant (probability of activity signature): ++ (5% ≤ ++ <25%) | MS: mood stabilizer (probability of activity signature): + (LOQ ≤ + <5%) | PS: anti-psychotic (probability of activity signature): ++ (5% ≤ ++ <25%) | SD: sedative hypnotic (probability of activity signature): + (LOQ ≤ + <5%) | UN: uncharacterized CNS activity (probability of activity signature): +++ (25% ≤ +++ <50%)

CC(C)c1cccc2c1COCC2N.Cl (stereo not drawn) [Example 18, 8-Isopropylisochroman-4-amine hydrochloride]
minimal effective dose: 10 to 30 mg/kg | AD: ADHD (probability of activity signature): + (LOQ ≤ + <5%) | AG: analgesic (probability of activity signature): +++ (25% ≤ +++ <50%) | AX: anxiolytic (probability of activity signature): ++ (5% ≤ ++ <25%) | CE: cognitive enhancer (probability of activity signature): ++ (5% ≤ ++ <25%) | DP: anti-depressant (probability of activity signature): ++ (5% ≤ ++ <25%) | MS: mood stabilizer (probability of activity signature): + (LOQ ≤ + <5%) | PS: anti-psychotic (probability of activity signature): ++ (5% ≤ ++ <25%) | SD: sedative hypnotic (probability of activity signature): ++ (5% ≤ ++ <25%) | UN: uncharacterized CNS activity (probability of activity signature): + (LOQ ≤ + <5%)

Cl.NC1COCc2ccc3c(c21)CCCC3 (stereo not drawn) [Example 19, 2,4,7,8,9,10-Hexahydro-1H-benzo[f]isochromen-1-amine hydrochloride]
minimal effective dose: 10 to 30 mg/kg | AD: ADHD (probability of activity signature): + (LOQ ≤ + <5%) | AG: analgesic (probability of activity signature): ++ (5% ≤ ++ <25%) | AX: anxiolytic (probability of activity signature): +++ (25% ≤ +++ <50%) | CE: cognitive enhancer (probability of activity signature): ++ (5% ≤ ++ <25%) | DP: anti-depressant (probability of activity signature): + (LOQ ≤ + <5%) | MS: mood stabilizer (probability of activity signature): + (LOQ ≤ + <5%) | PS: anti-psychotic (probability of activity signature): ++ (5% ≤ ++ <25%) | SD: sedative hypnotic (probability of activity signature): ++ (5% ≤ ++ <25%) | UN: uncharacterized CNS activity (probability of activity signature): +++ (25% ≤ +++ <50%)
